“And” between values parts separate entries of the source, which are not always exact repeats. Identical values can stand only once. One block for each molecule: values may come before it.
How the values were obtained:
BiP NBD [1] = target: T1, BiP NBD (Homo sapiens, UniProt P11021); assay: In-cyclo NMR in the presence of 3.3 mM calcium; format: biochemical; set-up: His6 (N, cleaved yes); made in house; host or cells: E. coli BL21-(DE3)-Lemo, pET28a vector
BiP = conditions: cited from earlier work
BiP NBD [2] = target: T1, BiP NBD; assay: Global kinetic fit (MCMC) of four NMR data sets (E1+E2, E1 only, E2 only, no recycling): functional cycle kinetic parameters; format: biochemical; set-up: His6 (N, cleaved yes); made in house; host or cells: E. coli BL21-(DE3)-Lemo, pET28a vector; conditions: for Kd: standard buffer
Text: It comprises 5 different states that are connected by […] reaction equations of first and second order. We consider ATP hydrolysis an irreversible reaction without backreaction. The other pathways are reversible dissociation/association reactions, arbitrarily labeled 1–5. The microscopic equations (elementary reactions) for these 11 reactions are given by:1 NBD^ATPkcat→NBD^ADP⋅Pi 2 NBD^ATPkoff1⇌kon1NBD^apo+ATP 3 NBD^ADPkoff2⇌kon2NBD^apo+ADP 4 NBD^Pikoff3⇌kon3NBD^apo+Pi 5 NBD^ADP⋅Pikoff4⇌kon4NBD^ADP+Pi 6 NBD^ADP⋅Pikoff5⇌kon5NBD^Pi+ADP With the forward and backward kinetic rate constants connected by thermodynamic equilibrium dissociation constants given by7 koffi/koni=KDifori=1,…,5 For each of the 5 states, a differential equation describing the conservation of mass can be derived:8 d/dtNBD^apo=+koff1NBD^ATP+koff2NBD^ADP+koff3NBD^Pi−kon1NBD^apoATP−kon2NBD^apoADP−kon3NBD^apoPi 9 d/dt[NBD^ATP]=+kon1NBD^apoATP−koff1NBD^ATP−kcatNBD^ATP 10 d/dtNBD^ADP⋅Pi=+kcatNBD^ATP+kon4NBD^ADPPi+kon5NBD^PiADP−koff4NBD^ADP⋅Pi−koff5NBD^ADP⋅Pi 11 d/dtNBD^ADP=+koff4NBD^ADP⋅Pi+kon2NBD^apoADP−koff2NBD^ADP−kon4NBD^ADPPi 12 d/dtNBD^Pi=+koff5NBD^ADP⋅Pi+kon3NBD^apoPi−koff3NBD^Pi−kon5NBD^PiADP Furthermore, we have the total amount13 NBD^apo+NBD^ATP+NBD^ADP+NBD^ADP⋅Pi+NBD^Pi=NBD0 These equations can be used for numerical fitting of steady-state and non-steady-state experimental data.
The experimental data of the BiP NBD in-cyclo experiments were fitted using standard reaction kinetics. Free variables were the kon and koff rates for the five reversible reaction and the catalytic rate constant (kcat) for the irreversible ATP hydrolysis step (See theory section). The initial values for kcat , koff2 , koff4 and koff5 were set to the value determined experimentally with in-cyclo experiment. The initial value for koff3 was taken from the EXSY experiment and the initial range for koff1 and KD1 were taken from the literature. […] The prior distributions were defined based on the average state occupancy resolved from the in-cyclo experiment: tNBD·ADP, tNBD, tNBD·ADP·Pi and tNBD·Pi. Numerical integration of the corresponding differential equations for the reaction scheme (described in Fig. 2a) was performed using a custom Python module (Kinetic).
To fully determine all kinetic parameters, the data fitting procedure was conducted as a global fit of four independent experimental datasets: (i) the in-cyclo experiment with ATP regeneration and phosphate removal, (ii) ATP regeneration only, (iii) single batch experiments starting from pure ATP with the phosphate removal system, and (iv) single batch experiments starting from pure ATP.
Fitting of the functional cycle kinetic parameters. a-d, Global fit of the experimental data presented in the manuscript E1 +E2 (a), E1 (b), E2 (c), no recycling system (d). Data points are shown as circles NBD·ADP (blue), NBD·ADP·PI (dark blue) and NBD·ATP (red) (left) and pyruvate (grey), glucose-1-P (lavender), ATP (red) and ADP (blue) (right). The fit of the data is shown as lines in the same color as the data points. Data points and standard deviation for three independent experiments. e, Numerical stability of the global fitting of the experimental data.

BiP NBD [3] = target: T1, BiP NBD; assay: NMR titration (equilibrium methyl-TROSY) with phosphate; format: binding; set-up: His6 (N, cleaved yes); made in house; host or cells: E. coli BL21-(DE3)-Lemo, pET28a vector; conditions: for Average IMABAADP.pi/IMABAADP: Supplementary Fig 12 f
[4] = Supplementary Fig 10a, time 5 min
[5] = Supplementary Fig 10a, time 11 min
[6] = Supplementary Fig 10a, time 17 min
[7] = Supplementary Fig 10a, time 23 min
[8] = Supplementary Fig 10a, time 29 min
[9] = Supplementary Fig 10a, time 35 min
[10] = Supplementary Fig 10a, time 41 min
[11] = Supplementary Fig 10a, time 47 min
[12] = Supplementary Fig 10a, time 53 min
[13] = Supplementary Fig 10a, time 59 min
[14] = Supplementary Fig 10a, time 65 min
[15] = Supplementary Fig 10a, time 71 min
[16] = Supplementary Fig 10b, time 10 min
[17] = Supplementary Fig 10b, time 16 min
[18] = Supplementary Fig 10b, time 22 min
[19] = Supplementary Fig 10b, time 28 min
[20] = Supplementary Fig 10b, time 34 min
[21] = Supplementary Fig 10b, time 40 min
[22] = Supplementary Fig 10b, time 46 min
[23] = Supplementary Fig 10b, time 52 min
[24] = Supplementary Fig 10b, time 58 min
[25] = Supplementary Fig 10b, time 64 min
[26] = Supplementary Fig 10b, time 70 min
[27] = Supplementary Fig 10c, time 5 min
[28] = Supplementary Fig 10c, time 11 min
[29] = Supplementary Fig 10c, time 17 min
[30] = Supplementary Fig 10c, time 23 min
[31] = Supplementary Fig 10c, time 29 min
[32] = Supplementary Fig 10c, time 35 min
[33] = Supplementary Fig 10c, time 41 min
[34] = Supplementary Fig 10c, time 47 min
[35] = Supplementary Fig 10c, time 53 min
[36] = Supplementary Fig 10d, time 5 min
[37] = Supplementary Fig 10d, time 11 min
[38] = Supplementary Fig 10d, time 17 min
[39] = Supplementary Fig 10d, time 23 min
[40] = Supplementary Fig 10d, time 29 min
[41] = Supplementary Fig 10d, time 35 min
[42] = Supplementary Fig 10d, time 41 min
[43] = Supplementary Fig 10d, time 47 min
[44] = Supplementary Fig 10d, time 53 min
[45] = reactions 1-3 (koff1, koff2, koff3): release from binary complex, T = 37 °C
[46] = reactions 1-3: binding to apo NBD, T = 37 °C
[47] = reactions 1-3: ligand leaving the binary complex to give apo NBD, T = 37 °C

T1 sequence (P11021 19-406): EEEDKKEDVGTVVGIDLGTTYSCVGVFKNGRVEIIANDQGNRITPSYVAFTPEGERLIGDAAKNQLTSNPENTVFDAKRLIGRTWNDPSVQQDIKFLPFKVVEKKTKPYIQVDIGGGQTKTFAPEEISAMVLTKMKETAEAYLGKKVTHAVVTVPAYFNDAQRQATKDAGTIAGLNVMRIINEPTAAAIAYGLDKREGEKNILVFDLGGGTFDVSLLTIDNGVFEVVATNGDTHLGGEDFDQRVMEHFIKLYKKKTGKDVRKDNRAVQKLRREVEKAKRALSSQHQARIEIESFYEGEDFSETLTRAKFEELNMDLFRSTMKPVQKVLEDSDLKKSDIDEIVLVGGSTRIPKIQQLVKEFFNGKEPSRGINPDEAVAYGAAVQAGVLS

molecular hydrolysis rate in-cyclo khydr (BiP NBD [1]; 3.3 mM calcium, 10 mM magnesium): 1.43 ± 0.06 min⁻¹
cycle timing (BiP NBD [1]; Fig 5d source data, 3.3 mM calcium: replicates [1]-[3] and average): 40.4 s and 41.4 s and 43.7 s
Structure (SMILES): [Ca+2] [calcium]
khydr (BiP NBD [1]; Fig 5a source data, 3.3 mM calcium: replicates [1]-[3] and average): 1.484 min⁻¹ and 1.451 min⁻¹ and 1.372 min⁻¹
increase of the MABA-ADP-bound lifetime (BiP; concentration-dependent): up to 4 fold
decrease of the ATP hydrolysis rate of BiP (BiP; physiological calcium levels compared to no calcium): 2 fold

kcat (BiP NBD [2]; NBD·ATP → NBD·ADP·Pi, T = 37 °C): 0.065 ± 0.013 s⁻¹ and 0.065 ± 0.01 s⁻¹
species (BiP NBD [2]; [4]): 4931 µM
species (BiP NBD [2]; [5]): 4934 µM
species (BiP NBD [2]; [6]): 4884 µM
species (BiP NBD [2]; [7]): 4899 µM
species (BiP NBD [2]; [8]): 4939 µM
species (BiP NBD [2]; [9]): 4943 µM
species (BiP NBD [2]; [10]): 4963 µM
species (BiP NBD [2]; [11]): 4978 µM
species (BiP NBD [2]; [12]): 5001 µM
species (BiP NBD [2]; [13]): 5024 µM
species (BiP NBD [2]; [14]): 5048 µM
species (BiP NBD [2]; [15]): 5079 µM
species (BiP NBD [2]; [16]): 5016 µM
species (BiP NBD [2]; [17]): 4951 µM
species (BiP NBD [2]; [18]): 4989 µM
species (BiP NBD [2]; [19]): 4949 µM
species (BiP NBD [2]; [20]): 5005 µM
species (BiP NBD [2]; [21]): 4923 µM
species (BiP NBD [2]; [22]): 4996 µM
species (BiP NBD [2]; [23]): 4916 µM
species (BiP NBD [2]; [24]): 4954 µM
species (BiP NBD [2]; [25]): 4989 µM
species (BiP NBD [2]; [26]): 4937 µM
species (BiP NBD [2]; [27]): 4151 µM
species (BiP NBD [2]; [28]): 3560 µM
species (BiP NBD [2]; [29]): 3077 µM
species (BiP NBD [2]; [30]): 2698 µM
species (BiP NBD [2]; [31]): 1801 µM
species (BiP NBD [2]; [32]): 1548 µM
species (BiP NBD [2]; [33]): 1183 µM
species (BiP NBD [2]; [34]): 1030 µM
species (BiP NBD [2]; [35]): 902 µM
kcat fitted average (BiP NBD [2]; Supplementary Fig 11b, fitted): 0.065 s⁻¹
species (BiP NBD [2]; [36]): 4064 µM
species (BiP NBD [2]; [37]): 3620 µM
species (BiP NBD [2]; [38]): 3330 µM
species (BiP NBD [2]; [39]): 3106 µM
species (BiP NBD [2]; [40]): 2931 µM
species (BiP NBD [2]; [41]): 2788 µM
species (BiP NBD [2]; [42]): 2663 µM
species (BiP NBD [2]; [43]): 2548 µM
species (BiP NBD [2]; [44]): 2448 µM
factor by which ATP unbinding is rarer than ATP hydrolysis (BiP NBD [2]; koff1 versus kcat): 5 times
koff (BiP NBD [2]; [45]): 0.012 ± 0.003 s⁻¹
kon (BiP NBD [2]; [46]): 32 ± 9 mM⁻¹ s⁻¹
Kd (BiP NBD [2]; [47]): 0.38 ± 0.12 µM
Structure (SMILES): Nc1ncnc2c1ncn2[C@@H]1O[C@H](COP(=O)(O)OP(=O)(O)OP(=O)(O)O)[C@@H](O)[C@H]1O [ATP]

Kd (BiP NBD [3]; 4MABA: Pi binding to NBD·MABA-ADP, 1 mM MABA-ADP): 270 ± 40 µM
Kd (BiP NBD [3]; KD3: Pi binding to apo NBD, 100 μM BiP NBD, 25 °C): 310 ± 40 µM
Kd (BiP NBD [3]; KD4: Pi binding to NBD·ADP, 1 mM ADP): 280 ± 50 µM
Average IMABAADP.pi/IMABAADP (BiP NBD [3]; Pi 0.15 mM): 0.3154
Average IMABAADP.pi/IMABAADP (BiP NBD [3]; Pi 0.25 mM): 0.5289
Average IMABAADP.pi/IMABAADP (BiP NBD [3]; Pi 0.5 mM): 0.6366
species (BiP NBD [2]; [4]): 25 µM
species (BiP NBD [2]; [5]): 25 µM
species (BiP NBD [2]; [6]): 25 µM
species (BiP NBD [2]; [7]): 25 µM
species (BiP NBD [2]; [8]): 25 µM
species (BiP NBD [2]; [9]): 25 µM
species (BiP NBD [2]; [10]): 25 µM
species (BiP NBD [2]; [11]): 25 µM
species (BiP NBD [2]; [12]): 25 µM
species (BiP NBD [2]; [13]): 25 µM
species (BiP NBD [2]; [14]): 25 µM
species (BiP NBD [2]; [15]): 25 µM
species (BiP NBD [2]; [16]): 1011 µM
species (BiP NBD [2]; [17]): 1602 µM
species (BiP NBD [2]; [18]): 2255 µM
species (BiP NBD [2]; [19]): 2820 µM
species (BiP NBD [2]; [20]): 3384 µM
species (BiP NBD [2]; [21]): 3735 µM
species (BiP NBD [2]; [22]): 4207 µM
species (BiP NBD [2]; [23]): 4544 µM
species (BiP NBD [2]; [24]): 4962 µM
species (BiP NBD [2]; [25]): 5335 µM
species (BiP NBD [2]; [26]): 5727 µM
species (BiP NBD [2]; [27]): 25 µM
species (BiP NBD [2]; [28]): 25 µM
species (BiP NBD [2]; [29]): 25 µM
species (BiP NBD [2]; [30]): 25 µM
species (BiP NBD [2]; [31]): 25 µM
species (BiP NBD [2]; [32]): 25 µM
species (BiP NBD [2]; [33]): 25 µM
species (BiP NBD [2]; [34]): 25 µM
species (BiP NBD [2]; [35]): 25 µM
species (BiP NBD [2]; [36]): 936 µM
species (BiP NBD [2]; [37]): 1380 µM
species (BiP NBD [2]; [38]): 1670 µM
species (BiP NBD [2]; [39]): 1894 µM
species (BiP NBD [2]; [40]): 2069 µM
species (BiP NBD [2]; [41]): 2212 µM
species (BiP NBD [2]; [42]): 2337 µM
species (BiP NBD [2]; [43]): 2452 µM
species (BiP NBD [2]; [44]): 2552 µM
rate of phosphate release relative to ADP release from the ADP·Pi-bound state (BiP NBD [2]; koff4 versus koff5): 2.5 times
koff (BiP NBD [2]; [45]): 1.3 ± 0.2 s⁻¹
kon (BiP NBD [2]; [46]): 5 ± 1 mM⁻¹ s⁻¹
Kd (BiP NBD [2]; [47]): 260 ± 20 µM
koff (BiP NBD [2]; reactions 4, 5 (koff4, koff5): release from NBD·ADP·Pi, T = 37 °C): 0.047 ± 0.01 s⁻¹
kon (BiP NBD [2]; reactions 4, 5: Pi binding to NBD·ADP, ADP binding to NBD·Pi, T = 37 °C): 0.20 ± 0.06 mM⁻¹ s⁻¹
Kd (BiP NBD [2]; reactions 4, 5: one ligand leaving NBD·ADP·Pi, the other stays bound, T = 37 °C): 235 ± 50 µM
Structure (SMILES): O=P(O)(O)O [Pi]

Source: publication PMC12126525, “Mechanism of ATP hydrolysis in the Hsp70 BiP nucleotide-binding domain” (Nature Communications, 2025)
